From ChEMBL document CHEMBL1139637, “Synthesis, X-ray crystallographic analysis, and antitumor activity of 1-acyl-3,6-disubstituted phenyl-1,4-dihydro-1,2,4,5-tetrazines” (2005)

How the values were obtained:
A549 [1] = assay: Inhibition ratio against the growth of A-549 cells at 10e-5 mol/L concentration determined by SRB method; type: functional, Homo sapiens
A549 [2] = assay: Inhibition ratio against the growth of A-549 cells at 10e-4 mol/L concentration determined by SRB method; type: functional, Homo sapiens
P388 [3] = assay: Inhibition ratio against the growth of P-388 cells at 10e-7 mol/L concentration determined by MTT method; type: functional, Mus musculus
P388 [4] = assay: Inhibition ratio against the growth of P-388 cells at 10e-5 mol/L concentration determined by MTT method; type: functional, Mus musculus
A549 [5] = assay: Inhibition ratio against the growth of A-549 cells at 10e-6 mol/L concentration determined by SRB method; type: functional, Homo sapiens
P388 [6] = assay: Inhibition ratio against the growth of P-388 cells at 10e-4 mol/L concentration determined by MTT method; type: functional, Mus musculus
P388 [7] = assay: Inhibition ratio against the growth of P-388 cells at 10e-6 mol/L concentration determined by MTT method; type: functional, Mus musculus
A549 [8] = assay: Inhibition ratio against the growth of A-549 cells at 10e-8 mol/L concentration determined by SRB method; type: functional, Homo sapiens
P388 [9] = assay: Inhibition ratio against the growth of P-388 cells at 10e-8 mol/L concentration determined by MTT method; type: functional, Mus musculus
A549 [10] = assay: Inhibition ratio against the growth of A-549 cells at 10e-7 mol/L concentration determined by SRB method; type: functional, Homo sapiens

Row | SMILES | Inhibition ratio (A549 [1]) | Inhibition ratio (A549 [2]) | Inhibition ratio (P388 [3]) | Inhibition ratio (P388 [4]) | Inhibition ratio (A549 [5]) | Inhibition ratio (P388 [6]) | Inhibition ratio (P388 [7]) | Inhibition ratio (A549 [8]) | Inhibition ratio (P388 [9]) | Inhibition ratio (A549 [10])
1 | CC(C)C(=O)N1N=C(c2ccccc2)NN=C1c1ccccc1 | 46.6 | 83.8 | 24.9 | 61.1 | 38.7 | 82.5 | 52 | 29.5 | 46.9 | 29.6
2 | O=C(CCl)N1N=C(c2ccc(C(F)(F)F)cc2)NN=C1c1ccc(C(F)(F)F)cc1 | 64.6 | 95.5 | 11.3 | 49.4 | 0 | 98.4 | 2.2 | 0 | 0 | 0
3 | CCC(=O)N1N=C(c2ccc(C(F)(F)F)cc2)NN=C1c1ccc(C(F)(F)F)cc1 | 48.1 | 84.7 | 6.3 | 21.1 | 21.7 | 68 | 6.7 | 9 | 0 | 0
4 | CC(=O)N1N=C(c2ccccc2)NN=C1c1ccccc1 | 0 | 85.1 | 5.5 | 10.9 | 0 | 62.7 | 6.6 | 0 | 9.2 | 0
5 | O=C(CCl)N1N=C(c2ccccc2)NN=C1c1ccccc1 | 95.8 | 95.4 | 3.6 | 100 | 35.3 | 99.1 | 3.9 | 13 | 0 | 4.1
6 | CCC(=O)N1N=C(c2ccccc2)NN=C1c1ccccc1 | 11.1 | 71.5 | 7.7 | 9.8 | 6.2 | 30.9 | 7.6 | 0 | 8.5 | 12.3
7 | CC(C)C(=O)N1N=C(c2ccc(C(F)(F)F)cc2)NN=C1c1ccc(C(F)(F)F)cc1 | 21 | 79.8 | 16.2 | 26.9 | 0 | 42.2 | 15 | 0 | 13.4 | 0
8 | CC(=O)N1N=C(c2ccc(C(F)(F)F)cc2)NN=C1c1ccc(C(F)(F)F)cc1 | 63.6 | 91.1 | 5 | 21.5 | 0 | 50.6 | 1.1 | 0 | 0 | 0
